pIC50: −log10 of the molar value.
Legend:
[1] = target: T1, NLRP3 (Homo sapiens, UniProt Q96P20); assay: Human whole blood IL1β release assay; type: cell-based; design: Plate out 80 μl of whole blood containing 1 μg/ml of LPS; from tissue; host or cells: human whole blood from healthy donors, LPS-primed, nigericin-stimulated; conditions: LPS 1 μg/ml, nigericin 10 μM, IL-1β AlphaLisa, read-out: HWB IC50
Protocol: For systemic delivery, the ability to inhibit NLRP3 when the compounds are present within the bloodstream is of great importance. For this reason, the NLRP3 inhibitory activity of a number of compounds in human whole blood was investigated in accordance with the following protocol.
Human whole blood in Li-heparin tubes was obtained from healthy donors from a volunteer donor panel. • 1. Plate out 80 μl of whole blood containing 1 μg/ml of LPS in 96-well, clear bottom cell culture plate (Corning #3585) • 2. Add […] compound (8 points half-log dilution with 10 μM top dose) or vehicle (DMSO 0.1% FAC) to the appropriate wells • 3. Incubate for 3 hrs at 37° C., 5% CO2 • 4. Add 10 μl Nigericin (Sigma #N7143) (10 μM FAC) to all wells • 5. Incubate for 1 hr at 37° C., 5 CO2 • 6. At the end of the incubation period, spin plates at 300×g for 5 mins to pellet cells and remove 20 μl of supernatant and add to 96-well v-bottom plates for […] analysis (note: these plates containing the supernatants can be stored at −80° C. to be analysed at a later date) • 7. IL-1β was measured according to the manufacturer protocol (Perkin Elmer-AlphaLisa IL-1 Kit AL220F-5000) • 8. IC50 data is fitted to anon-linear regression equation (log inhibitor vs response-variable slope 4-parameters)

[2] = target: T1, NLRP3; assay: THP-1 cells pyroptosis assay; type: cell-based; design: Seed THP-1 cells (25,000 cells/well) containing 1.0 μg/ml LPS; host or cells: THP-1 cells, LPS-primed, nigericin-stimulated; conditions: LPS 1 μg/ml, nigericin 5 μM, resazurin read-out
Protocol: THP-1 cells (ATCC #TIB-202) were grown in RPMI containing L-glutamine (Gibco #11835) supplemented with 1 mM sodium pyruvate (Sigma #S8636) and penicillin (100 units/ml)/streptomycin (0.1 mg/ml) (Sigma #P4333) in 10% Fetal Bovine Serum (FBS) (Sigma #F0804). The cells were routinely passaged and grown to confluency (˜10^6 cells/ml). On the day of the experiment, THP-1 cells were harvested and resuspended into RPMI medium (without FBS). The cells were then counted and viability (>90%) checked by Trypan blue (Sigma #T8154). Appropriate dilutions were made to give a concentration of 625,000 cells/ml. To this diluted cell solution was added LPS (Sigma #L4524) to give a 1 μg/ml Final Assay Concentration (FAC). 40 μl of the final preparation was aliquoted into each well of a 96-well plate. The plate thus prepared was used for compound screening.
The following method step-by-step assay was followed for compound screening. • 1. Seed THP-1 cells (25,000 cells/well) containing 1.0 μg/ml LPS in 40 μl of RPMI medium (without FBS) in 96-well, black walled, clear bottom cell culture plates coated with poly-D-lysine (VWR #734-0317) • 2. Add 5 μl compound (8 points half-log dilution, with 10 μM top dose) or vehicle (DMSO 0.1% FAC) to the appropriate wells • 3. Incubate for 3 hrs at 37° C. and 5% CO2 • 4. Add 5 μl nigericin (Sigma #N7143) (FAC 5 μM) to all wells • 5. Incubate for 1 hr at 37° C. and 5% CO2 • 6. At the end of the incubation period, spin plates at 300×g for 3 mins and remove supernatant • 7. Then add 50 μl of resazurin (Sigma #R7017) (FAC 100 μM resazurin in RPMI medium without FBS) and incubate plates for a further 1-2 hrs at 37° C. and 5% CO2 • 8. Plates were read in an Envision reader at Ex 560 nm and Em 590 nm • 9. IC50 data is fitted to a non-linear regression equation (log inhibitor vs response-variable slope 4-parameters) 96-Well Plate Map

T1 sequence (Q96P20 whole entry): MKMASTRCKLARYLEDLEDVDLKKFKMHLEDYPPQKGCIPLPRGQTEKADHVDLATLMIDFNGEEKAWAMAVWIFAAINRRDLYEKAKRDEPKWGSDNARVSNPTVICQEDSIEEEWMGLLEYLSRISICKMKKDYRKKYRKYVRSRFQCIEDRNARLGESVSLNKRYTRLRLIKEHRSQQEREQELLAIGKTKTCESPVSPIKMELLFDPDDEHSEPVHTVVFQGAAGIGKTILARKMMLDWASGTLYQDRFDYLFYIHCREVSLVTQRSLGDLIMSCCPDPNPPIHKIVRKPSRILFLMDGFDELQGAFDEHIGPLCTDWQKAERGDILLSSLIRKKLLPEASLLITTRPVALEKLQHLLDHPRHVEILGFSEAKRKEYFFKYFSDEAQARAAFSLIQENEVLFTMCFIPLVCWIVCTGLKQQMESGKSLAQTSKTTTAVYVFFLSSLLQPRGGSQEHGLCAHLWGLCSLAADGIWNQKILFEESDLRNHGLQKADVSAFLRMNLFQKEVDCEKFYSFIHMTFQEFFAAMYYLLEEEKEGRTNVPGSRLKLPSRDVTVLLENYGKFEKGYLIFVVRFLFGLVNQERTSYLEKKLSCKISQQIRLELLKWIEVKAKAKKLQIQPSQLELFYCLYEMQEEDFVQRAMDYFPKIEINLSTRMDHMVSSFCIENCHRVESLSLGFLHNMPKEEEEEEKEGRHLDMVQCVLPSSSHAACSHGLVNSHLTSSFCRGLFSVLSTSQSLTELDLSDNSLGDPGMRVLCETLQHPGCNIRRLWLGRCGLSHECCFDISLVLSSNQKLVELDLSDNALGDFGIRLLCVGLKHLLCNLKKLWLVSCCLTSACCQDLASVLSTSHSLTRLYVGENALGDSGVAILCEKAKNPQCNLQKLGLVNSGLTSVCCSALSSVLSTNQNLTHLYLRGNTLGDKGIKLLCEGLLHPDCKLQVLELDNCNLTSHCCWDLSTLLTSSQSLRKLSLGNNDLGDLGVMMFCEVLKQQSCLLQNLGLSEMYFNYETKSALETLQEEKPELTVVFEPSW

Row | SMILES | pIC50 [1] | pIC50 [2]
1 | COC1(c2cc(S(=O)(=O)NC(=O)Nc3c4c(cc5c3CCC5)CCC4)nn2C(C)(C)C)COC1 [Example 39, 1-(tert-Butyl)-N-((1,2,3,5,6,7-hexahydro-s-indacen-4-yl)carbamoyl)-5-(3-methoxyoxetan-3-yl)-1H-pyrazole-3-sulfonamide] | 5.49 to 5.80 | 6.80 to 7.40
2 | COc1cc(-c2cc(F)cc(C(C)C)c2NC(=O)NS(=O)(=O)c2cc(C3(OC)COC3)n(C)n2)ccn1 [Example 40, N-((4-Fluoro-2-isopropyl-6-(2-methoxypyridin-4-yl)phenyl)carbamoyl)-5-(3-methoxyoxetan-3-yl)-1-methyl-1H-pyrazole-3-sulfonamide] | > 6.40 | 6.19 to 6.80
3 | CCOC1(c2cc(S(=O)(=O)NC(=O)Nc3c4c(cc5c3CCC5)CCC4)nn2C)COC1 [Example 41, 5-(3-Ethoxyoxetan-3-yl)-N-((1,2,3,5,6,7-hexahydro-s-indacen-4-yl)carbamoyl)-1-methyl-1H-pyrazole-3-sulfonamide] | 6.10 to 6.40 | 6.80 to 7.40
4 | CC(C)n1nc(S(=O)(=O)NC(=O)Nc2c3c(cc4c2CCC4)CCC3)cc1C1(O)COC1 [Example 47, N-((1,2,3,5,6,7-Hexahydro-s-indacen-4-yl)carbamoyl)-5-(3-hydroxyoxetan-3-yl)-1-isopropyl-1H-pyrazole-3-sulfonamide] | 6.10 to 6.40 | 6.80 to 7.40
5 | Cn1nc(S(=O)(=O)NC(=O)Nc2c3c(cc4c2CCC4)CCC3)cc1C1(F)COC1 [Example 49, 5-(3-Fluorooxetan-3-yl)-N-((1,2,3,5,6,7-hexahydro-s-indacen-4-yl)carbamoyl)-1-methyl-1H-pyrazole-3-sulfonamide] | 5.80 to 6.10 | 6.19 to 6.80
6 | Cn1nc(S(=O)(=O)NC(=O)Nc2c3c(cc4c2CCC4)CCC3)cc1CC(C)(C)O [Example 50, N-((1,2,3,5,6,7-Hexahydro-s-indacen-4-yl)carbamoyl)-5-(2-hydroxy-2-methylpropyl)-1-methyl-1H-pyrazole-3-sulfonamide] | 5.80 to 6.10 | 6.80 to 7.40
7 | Cn1nc(S(=O)(=O)NC(=O)Nc2c3c(cc4c2CCC4)CCC3)cc1C1(O)CCOCC1 [Example 55, N-((1,2,3,5,6,7-Hexahydro-s-indacen-4-yl)carbamoyl)-5-(4-hydroxytetrahydro-2H-pyran-4-yl)-1-methyl-1H-pyrazole-3-sulfonamide] | 5.80 to 6.10 | 6.19 to 6.80
8 | Cn1nc(S(=O)(=O)NC(=O)Nc2c3c(cc4c2CCC4)CCC3)cc1C(=O)N(CCO)CCO [Example 61, 3-(N-((1,2,3,5,6,7-Hexahydro-s-indacen-4-yl)carbamoyl)sulfamoyl)-N,N-bis(2-hydroxyethyl)-1-methyl-1H-pyrazole-5-carboxamide] | > 6.40 | 6.19 to 6.80
9 | CN(CCCO)C(=O)c1cc(S(=O)(=O)NC(=O)Nc2c3c(cc4c2CCC4)CCC3)nn1C [Example 64, 3-(N-((1,2,3,5,6,7-Hexahydro-s-indacen-4-yl)carbamoyl)sulfamoyl)-N-(3-hydroxypropyl)-N,1-dimethyl-1H-pyrazole-5-carboxamide] | 5.49 to 5.80 | 6.19 to 6.80
10 | CCN(CCO)C(=O)c1cc(S(=O)(=O)NC(=O)Nc2c3c(cc4c2CCC4)CCC3)nn1C [Example 66, N-Ethyl-3-(N-((1,2,3,5,6,7-hexahydro-s-indacen-4-yl)carbamoyl)sulfamoyl)-N-(2-hydroxyethyl)-1-methyl-1H-pyrazole-5-carboxamide] | 5.80 to 6.10 | 6.19 to 6.80
11 | CC(C)c1cc(Cl)cc(C(C)C)c1NC(=O)NS(=O)(=O)c1cc(C(=O)N(C)CCO)n(C)n1 [Example 82, 3-(N-((4-Chloro-2,6-diisopropylphenyl)carbamoyl)sulfamoyl)-N-(2-hydroxyethyl)-N,1-dimethyl-1H-pyrazole-5-carboxamide] | 5.80 to 6.10 | 6.80 to 7.40
12 | COc1cc(-c2ccc3c(c2NC(=O)NS(=O)(=O)c2ccn(C(C)(C)CN4CC(OC)C4)n2)CCC3)ccn1 [Example 90] | > 6.40 | > 7.40
13 | N#Cc1cc(-c2ccc3c(c2NC(=O)NS(=O)(=O)c2ccn(C4CCOC4)n2)CCC3)ccn1 (centres unmarked) [Example 91] | > 6.40 | > 7.40

— patent publication US12012392B2, “Sulfonamide carboxamide compounds” (Inflazome Limited, priority 2017, dated 2024)
